This is an account of results in ChEMBL document CHEMBL5375948, “Development and Pharmacochemical Characterization Discover a Novel Brain-Permeable HDAC11-Selective Inhibitor with Therapeutic Potential by Regulating Neuroinflammation in Mice” (J Med Chem, 2023).

Assay [1] concerns the target Histone deacetylase 1 (Homo sapiens, UniProt Q13547). Description: Inhibition of recombinant full-length human HDAC1 using FITC-H3K27(Ac)-NH2 as substrate by electrophoretic mobility shift assay. On the technique in general: In EMSA bound probe runs differently from free probe, usually more slowly.
Assay [2] concerns the target T1, Polyamine deacetylase HDAC10 (Homo sapiens, UniProt Q969S8).
T1 sequence (Q969S8 whole entry): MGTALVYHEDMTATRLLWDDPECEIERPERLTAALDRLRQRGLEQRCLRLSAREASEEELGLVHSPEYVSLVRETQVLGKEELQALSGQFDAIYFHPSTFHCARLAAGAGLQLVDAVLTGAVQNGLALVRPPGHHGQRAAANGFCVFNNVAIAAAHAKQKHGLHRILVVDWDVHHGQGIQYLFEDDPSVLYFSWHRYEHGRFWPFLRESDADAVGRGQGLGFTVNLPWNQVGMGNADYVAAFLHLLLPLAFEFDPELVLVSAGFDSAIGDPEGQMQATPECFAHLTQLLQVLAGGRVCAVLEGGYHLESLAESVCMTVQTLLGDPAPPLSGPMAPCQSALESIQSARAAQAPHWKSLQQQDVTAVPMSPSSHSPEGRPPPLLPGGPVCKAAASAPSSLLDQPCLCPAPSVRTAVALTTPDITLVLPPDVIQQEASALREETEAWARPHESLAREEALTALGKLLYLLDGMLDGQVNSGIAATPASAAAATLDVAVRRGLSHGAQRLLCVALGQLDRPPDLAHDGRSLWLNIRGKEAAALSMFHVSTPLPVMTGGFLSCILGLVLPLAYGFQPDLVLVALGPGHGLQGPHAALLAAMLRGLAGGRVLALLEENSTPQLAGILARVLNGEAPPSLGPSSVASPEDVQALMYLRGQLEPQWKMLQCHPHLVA
Description: Inhibition of recombinant full-length human HDAC10 using FITC-H3K27(Ac)-NH2 as substrate by electrophoretic mobility shift assay.

In assay [3] the target is Histone deacetylase 2 (Homo sapiens, UniProt Q92769). Description: Inhibition of recombinant full-length human HDAC2 using FITC-H3K27(Ac)-NH2 as substrate by electrophoretic mobility shift assay.
Chain of Histone deacetylase 2 (Q92769 whole entry): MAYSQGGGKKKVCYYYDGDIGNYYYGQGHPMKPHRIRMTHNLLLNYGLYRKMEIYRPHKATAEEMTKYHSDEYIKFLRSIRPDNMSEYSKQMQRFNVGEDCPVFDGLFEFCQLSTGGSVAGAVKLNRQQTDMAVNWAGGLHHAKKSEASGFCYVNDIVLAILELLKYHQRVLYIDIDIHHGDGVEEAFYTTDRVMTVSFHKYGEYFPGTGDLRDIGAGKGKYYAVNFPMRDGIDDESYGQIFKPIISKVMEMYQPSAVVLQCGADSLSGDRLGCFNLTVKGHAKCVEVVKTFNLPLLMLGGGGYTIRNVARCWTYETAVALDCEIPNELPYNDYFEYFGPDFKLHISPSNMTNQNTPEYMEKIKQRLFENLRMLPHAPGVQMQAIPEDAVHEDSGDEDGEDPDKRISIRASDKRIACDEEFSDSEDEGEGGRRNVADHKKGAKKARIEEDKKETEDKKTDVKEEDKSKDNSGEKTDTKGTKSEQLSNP
Assay [4] deals with Histone deacetylase 3 (Homo sapiens, UniProt O15379).
Chain of Histone deacetylase 3 (O15379 whole entry): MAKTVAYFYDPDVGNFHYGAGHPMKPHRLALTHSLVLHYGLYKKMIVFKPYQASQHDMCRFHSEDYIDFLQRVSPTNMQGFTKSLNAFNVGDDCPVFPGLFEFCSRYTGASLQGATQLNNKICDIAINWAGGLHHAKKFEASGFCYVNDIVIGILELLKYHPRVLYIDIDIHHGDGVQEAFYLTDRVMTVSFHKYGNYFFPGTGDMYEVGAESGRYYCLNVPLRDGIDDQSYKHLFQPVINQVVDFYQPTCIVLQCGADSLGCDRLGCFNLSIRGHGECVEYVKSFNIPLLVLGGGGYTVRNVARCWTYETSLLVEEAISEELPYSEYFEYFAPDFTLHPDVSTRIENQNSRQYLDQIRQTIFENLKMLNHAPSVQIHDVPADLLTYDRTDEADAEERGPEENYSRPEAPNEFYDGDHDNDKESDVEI
Description: Inhibition of recombinant full-length human HDAC3 using FAM-RHKK(Ac)-NH2 as substrate by electrophoretic mobility shift assay
The target of assay [5] is Histone deacetylase 9 (Homo sapiens, UniProt Q9UKV0). Description: Inhibition of recombinant full-length human HDAC9 using FAM-RHKK (trifluor-Ac)-NH2 as substrate by electrophoretic mobility shift assay.
Chain of Histone deacetylase 9 (Q9UKV0 whole entry): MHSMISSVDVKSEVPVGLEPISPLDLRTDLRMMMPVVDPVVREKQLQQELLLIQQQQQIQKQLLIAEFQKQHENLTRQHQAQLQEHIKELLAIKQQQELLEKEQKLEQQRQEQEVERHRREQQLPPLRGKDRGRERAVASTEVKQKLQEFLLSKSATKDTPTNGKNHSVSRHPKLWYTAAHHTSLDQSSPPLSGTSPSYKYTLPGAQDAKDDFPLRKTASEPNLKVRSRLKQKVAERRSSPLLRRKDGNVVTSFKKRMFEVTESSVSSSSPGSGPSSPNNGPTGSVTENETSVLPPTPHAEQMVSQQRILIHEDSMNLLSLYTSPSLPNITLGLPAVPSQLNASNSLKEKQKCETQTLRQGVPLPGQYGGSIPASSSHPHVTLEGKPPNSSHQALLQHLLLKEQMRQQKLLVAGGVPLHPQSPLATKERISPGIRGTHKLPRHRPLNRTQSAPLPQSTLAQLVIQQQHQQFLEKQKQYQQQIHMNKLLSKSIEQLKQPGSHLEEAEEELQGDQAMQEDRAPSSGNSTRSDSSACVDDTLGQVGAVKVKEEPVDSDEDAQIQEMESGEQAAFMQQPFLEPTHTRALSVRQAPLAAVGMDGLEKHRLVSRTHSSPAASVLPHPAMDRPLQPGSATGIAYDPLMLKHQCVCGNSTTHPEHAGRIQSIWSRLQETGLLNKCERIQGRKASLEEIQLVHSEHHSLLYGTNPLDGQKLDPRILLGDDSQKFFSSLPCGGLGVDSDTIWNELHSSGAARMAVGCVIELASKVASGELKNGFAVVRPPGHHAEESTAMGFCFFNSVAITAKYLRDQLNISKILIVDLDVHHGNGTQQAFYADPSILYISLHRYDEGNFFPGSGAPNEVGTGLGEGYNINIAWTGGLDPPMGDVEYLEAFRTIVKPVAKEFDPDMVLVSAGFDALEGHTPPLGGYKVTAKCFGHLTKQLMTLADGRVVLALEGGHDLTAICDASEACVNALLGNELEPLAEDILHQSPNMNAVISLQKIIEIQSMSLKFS
The target of assay [6] is Histone deacetylase 4 (Homo sapiens, UniProt P56524). The assay is described as follows: Inhibition of recombinant full-length human HDAC4 using FAM-RHKK (trifluor-Ac)-NH2 as substrate by electrophoretic mobility shift assay.
Chain of Histone deacetylase 4 (P56524 whole entry): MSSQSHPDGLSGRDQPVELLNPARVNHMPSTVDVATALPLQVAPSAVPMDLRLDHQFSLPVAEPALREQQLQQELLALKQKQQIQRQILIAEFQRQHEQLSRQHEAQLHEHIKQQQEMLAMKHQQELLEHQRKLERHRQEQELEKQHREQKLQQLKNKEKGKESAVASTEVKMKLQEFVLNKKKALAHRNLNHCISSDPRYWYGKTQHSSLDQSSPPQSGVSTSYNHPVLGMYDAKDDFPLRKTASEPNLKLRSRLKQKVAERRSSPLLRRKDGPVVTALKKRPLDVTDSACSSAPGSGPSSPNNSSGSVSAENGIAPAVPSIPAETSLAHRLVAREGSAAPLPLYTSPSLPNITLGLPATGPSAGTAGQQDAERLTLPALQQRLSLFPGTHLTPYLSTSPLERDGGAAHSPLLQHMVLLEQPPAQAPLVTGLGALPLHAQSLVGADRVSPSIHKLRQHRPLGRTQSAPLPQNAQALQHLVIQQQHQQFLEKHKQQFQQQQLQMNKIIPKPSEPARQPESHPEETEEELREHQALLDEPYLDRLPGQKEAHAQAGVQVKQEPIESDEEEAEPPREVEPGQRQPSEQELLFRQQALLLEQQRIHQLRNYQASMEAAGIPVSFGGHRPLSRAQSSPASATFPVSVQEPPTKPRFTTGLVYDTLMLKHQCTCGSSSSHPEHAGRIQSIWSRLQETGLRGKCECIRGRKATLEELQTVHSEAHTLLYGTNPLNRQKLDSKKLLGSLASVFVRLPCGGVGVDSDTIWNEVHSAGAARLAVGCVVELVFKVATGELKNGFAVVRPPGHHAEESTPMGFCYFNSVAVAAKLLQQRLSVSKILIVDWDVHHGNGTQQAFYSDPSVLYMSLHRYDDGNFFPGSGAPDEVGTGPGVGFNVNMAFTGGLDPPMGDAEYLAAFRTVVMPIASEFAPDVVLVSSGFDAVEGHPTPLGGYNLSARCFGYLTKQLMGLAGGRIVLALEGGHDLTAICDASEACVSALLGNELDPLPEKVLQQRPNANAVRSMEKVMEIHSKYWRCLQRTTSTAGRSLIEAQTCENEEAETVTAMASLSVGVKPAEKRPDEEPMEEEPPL
Assay [7] concerns the target T2, Histone deacetylase 8 (Homo sapiens, UniProt Q9BY41).
T2 sequence (Q9BY41 whole entry): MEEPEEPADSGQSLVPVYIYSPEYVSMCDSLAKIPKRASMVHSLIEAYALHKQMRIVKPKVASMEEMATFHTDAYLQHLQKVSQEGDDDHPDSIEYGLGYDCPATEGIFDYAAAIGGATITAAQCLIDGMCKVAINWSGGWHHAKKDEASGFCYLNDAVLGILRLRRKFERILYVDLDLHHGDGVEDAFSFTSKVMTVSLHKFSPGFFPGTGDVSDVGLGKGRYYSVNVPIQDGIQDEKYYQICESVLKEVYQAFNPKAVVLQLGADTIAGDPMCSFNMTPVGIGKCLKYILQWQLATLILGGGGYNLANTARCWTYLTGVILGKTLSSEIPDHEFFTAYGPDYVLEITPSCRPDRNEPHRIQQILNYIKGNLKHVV
The assay is described as follows: Inhibition of recombinant full-length human HDAC8 using FAM-RHKK(Ac)-NH2 as substrate by electrophoretic mobility shift assay.

For assay [8], the target named is T3, Protein deacetylase HDAC6 (Homo sapiens, UniProt Q9UBN7).
T3 sequence (Q9UBN7 whole entry): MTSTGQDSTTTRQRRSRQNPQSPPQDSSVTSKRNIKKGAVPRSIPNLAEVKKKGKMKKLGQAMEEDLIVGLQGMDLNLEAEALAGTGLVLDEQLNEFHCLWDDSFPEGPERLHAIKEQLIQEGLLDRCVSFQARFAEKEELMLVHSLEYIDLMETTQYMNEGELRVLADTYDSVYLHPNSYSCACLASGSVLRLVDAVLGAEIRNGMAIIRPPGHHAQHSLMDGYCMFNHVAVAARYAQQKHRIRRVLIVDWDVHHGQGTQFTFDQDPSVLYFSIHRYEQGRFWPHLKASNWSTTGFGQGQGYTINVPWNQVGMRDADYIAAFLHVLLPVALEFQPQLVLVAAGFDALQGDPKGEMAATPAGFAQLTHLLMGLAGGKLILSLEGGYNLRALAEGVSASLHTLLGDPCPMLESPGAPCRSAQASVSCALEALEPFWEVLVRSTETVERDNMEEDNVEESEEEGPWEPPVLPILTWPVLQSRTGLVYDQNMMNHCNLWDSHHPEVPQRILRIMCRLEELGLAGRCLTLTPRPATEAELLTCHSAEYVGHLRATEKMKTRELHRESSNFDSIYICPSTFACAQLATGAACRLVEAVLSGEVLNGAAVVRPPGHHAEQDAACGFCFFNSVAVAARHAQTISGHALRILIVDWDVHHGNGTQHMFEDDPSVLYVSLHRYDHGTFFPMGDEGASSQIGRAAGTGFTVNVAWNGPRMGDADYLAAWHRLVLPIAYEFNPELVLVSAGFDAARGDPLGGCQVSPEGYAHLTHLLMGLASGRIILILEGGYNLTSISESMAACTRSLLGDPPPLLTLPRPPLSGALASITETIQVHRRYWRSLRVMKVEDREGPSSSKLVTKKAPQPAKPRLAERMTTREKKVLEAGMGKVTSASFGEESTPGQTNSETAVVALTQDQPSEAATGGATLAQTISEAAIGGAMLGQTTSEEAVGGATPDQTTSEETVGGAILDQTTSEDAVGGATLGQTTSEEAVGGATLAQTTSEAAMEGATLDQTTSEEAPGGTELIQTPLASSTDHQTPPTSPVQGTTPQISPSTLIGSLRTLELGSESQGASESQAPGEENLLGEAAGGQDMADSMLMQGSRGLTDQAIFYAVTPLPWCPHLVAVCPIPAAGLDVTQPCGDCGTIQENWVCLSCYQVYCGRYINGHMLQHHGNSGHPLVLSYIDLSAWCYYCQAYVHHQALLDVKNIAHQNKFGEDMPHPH
Description: Inhibition of recombinant full-length human HDAC6 using FAM-RHKK(Ac)-NH2 as substrate by electrophoretic mobility shift assay.

Assay [9] concerns the target Histone deacetylase 5 (Homo sapiens, UniProt Q9UQL6). The assay is described as follows: Inhibition of recombinant full-length human HDAC5 using FAM-RHKK (trifluor-Ac)-NH2 as substrate by electrophoretic mobility shift assay.
Assay [10] addresses T4, Histone deacetylase 11 (Homo sapiens, UniProt Q96DB2).
T4 sequence (Q96DB2 whole entry): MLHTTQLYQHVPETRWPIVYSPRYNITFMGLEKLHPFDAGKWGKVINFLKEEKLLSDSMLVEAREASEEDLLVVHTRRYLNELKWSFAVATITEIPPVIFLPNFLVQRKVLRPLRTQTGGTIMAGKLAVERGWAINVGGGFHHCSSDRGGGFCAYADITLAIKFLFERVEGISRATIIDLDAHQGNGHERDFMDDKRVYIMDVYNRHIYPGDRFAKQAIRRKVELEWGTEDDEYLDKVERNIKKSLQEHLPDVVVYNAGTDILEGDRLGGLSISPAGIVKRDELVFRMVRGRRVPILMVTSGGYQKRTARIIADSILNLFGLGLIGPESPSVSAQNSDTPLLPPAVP
Description: Inhibition of recombinant full-length human HDAC11 using FAM-RHKK (trifluor-Ac)-NH2 as substrate by electrophoretic mobility shift assay.

The target in assay [11] is T5, Histone deacetylase 7 (Homo sapiens, UniProt Q8WUI4).
T5 sequence (Q8WUI4 whole entry): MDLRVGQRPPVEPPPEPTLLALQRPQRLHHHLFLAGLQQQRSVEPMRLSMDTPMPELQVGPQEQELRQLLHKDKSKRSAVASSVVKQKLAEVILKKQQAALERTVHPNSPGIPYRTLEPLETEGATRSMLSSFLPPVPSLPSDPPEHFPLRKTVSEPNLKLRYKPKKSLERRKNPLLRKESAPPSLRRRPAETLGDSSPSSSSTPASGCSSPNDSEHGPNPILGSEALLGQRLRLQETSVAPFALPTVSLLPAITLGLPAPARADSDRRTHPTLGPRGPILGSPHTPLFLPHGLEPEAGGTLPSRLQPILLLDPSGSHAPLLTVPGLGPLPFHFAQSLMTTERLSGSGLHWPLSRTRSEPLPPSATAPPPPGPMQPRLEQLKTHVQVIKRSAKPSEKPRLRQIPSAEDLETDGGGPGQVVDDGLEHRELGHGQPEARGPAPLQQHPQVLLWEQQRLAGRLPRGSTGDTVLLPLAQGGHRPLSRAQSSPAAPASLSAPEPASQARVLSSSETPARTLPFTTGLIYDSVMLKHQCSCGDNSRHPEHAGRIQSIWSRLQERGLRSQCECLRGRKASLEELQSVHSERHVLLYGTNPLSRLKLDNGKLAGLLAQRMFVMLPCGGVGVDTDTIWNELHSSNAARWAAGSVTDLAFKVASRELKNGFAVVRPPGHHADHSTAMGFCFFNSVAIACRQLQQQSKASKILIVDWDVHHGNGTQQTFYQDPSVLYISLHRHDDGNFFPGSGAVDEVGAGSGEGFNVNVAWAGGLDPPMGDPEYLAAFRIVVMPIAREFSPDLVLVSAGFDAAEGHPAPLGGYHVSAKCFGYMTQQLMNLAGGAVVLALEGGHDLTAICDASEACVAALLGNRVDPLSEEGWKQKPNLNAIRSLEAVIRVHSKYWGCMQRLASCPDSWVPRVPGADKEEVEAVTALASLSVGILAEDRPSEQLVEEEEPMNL
Description: Inhibition of recombinant full-length human HDAC7 using FAM-RHKK (trifluor-Ac)-NH2 as substrate by electrophoretic mobility shift assay.

Chain of Histone deacetylase 5 (Q9UQL6 whole entry): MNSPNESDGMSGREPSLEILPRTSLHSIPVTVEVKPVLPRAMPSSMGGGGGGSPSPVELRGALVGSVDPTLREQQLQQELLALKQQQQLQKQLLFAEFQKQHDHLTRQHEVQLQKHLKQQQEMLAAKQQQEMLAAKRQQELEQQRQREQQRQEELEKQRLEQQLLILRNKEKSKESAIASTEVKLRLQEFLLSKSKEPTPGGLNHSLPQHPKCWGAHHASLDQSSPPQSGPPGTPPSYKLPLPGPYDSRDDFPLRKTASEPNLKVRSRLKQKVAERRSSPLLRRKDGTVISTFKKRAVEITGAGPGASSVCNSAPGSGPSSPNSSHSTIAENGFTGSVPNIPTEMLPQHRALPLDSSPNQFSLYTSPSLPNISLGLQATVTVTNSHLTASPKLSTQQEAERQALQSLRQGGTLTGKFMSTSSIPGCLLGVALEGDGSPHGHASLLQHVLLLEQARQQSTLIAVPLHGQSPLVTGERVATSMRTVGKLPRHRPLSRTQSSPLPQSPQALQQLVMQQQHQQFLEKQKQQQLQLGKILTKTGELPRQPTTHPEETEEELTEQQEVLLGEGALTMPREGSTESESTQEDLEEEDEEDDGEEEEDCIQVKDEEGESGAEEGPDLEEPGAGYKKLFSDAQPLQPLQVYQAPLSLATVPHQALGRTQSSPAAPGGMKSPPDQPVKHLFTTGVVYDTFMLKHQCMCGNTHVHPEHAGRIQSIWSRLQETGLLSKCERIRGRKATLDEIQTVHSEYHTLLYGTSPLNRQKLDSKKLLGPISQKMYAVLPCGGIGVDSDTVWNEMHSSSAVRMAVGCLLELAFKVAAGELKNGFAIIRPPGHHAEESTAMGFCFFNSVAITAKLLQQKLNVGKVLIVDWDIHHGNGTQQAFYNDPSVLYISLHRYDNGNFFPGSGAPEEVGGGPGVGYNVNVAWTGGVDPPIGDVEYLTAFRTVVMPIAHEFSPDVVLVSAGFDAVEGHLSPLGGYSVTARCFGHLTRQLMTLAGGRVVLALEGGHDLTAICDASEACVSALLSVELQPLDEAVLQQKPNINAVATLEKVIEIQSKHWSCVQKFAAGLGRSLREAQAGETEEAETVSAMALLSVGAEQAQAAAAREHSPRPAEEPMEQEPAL
Chain of Histone deacetylase 1 (Q13547 whole entry): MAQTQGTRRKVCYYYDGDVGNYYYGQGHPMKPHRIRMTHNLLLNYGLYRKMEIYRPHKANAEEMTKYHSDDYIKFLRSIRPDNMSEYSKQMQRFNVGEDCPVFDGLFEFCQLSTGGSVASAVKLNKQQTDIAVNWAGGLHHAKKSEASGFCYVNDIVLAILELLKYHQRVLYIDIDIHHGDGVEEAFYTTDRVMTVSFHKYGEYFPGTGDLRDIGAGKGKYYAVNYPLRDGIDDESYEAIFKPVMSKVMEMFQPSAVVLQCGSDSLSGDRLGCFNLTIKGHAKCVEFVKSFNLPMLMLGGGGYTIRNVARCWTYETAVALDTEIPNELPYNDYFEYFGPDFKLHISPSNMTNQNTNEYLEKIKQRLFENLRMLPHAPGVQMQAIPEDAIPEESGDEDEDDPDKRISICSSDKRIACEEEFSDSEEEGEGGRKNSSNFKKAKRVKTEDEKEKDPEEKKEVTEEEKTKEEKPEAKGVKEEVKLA

Usually IC50 stands for the midpoint of a concentration-inhibition curve. With `O=C(NCC12C[C@H]3C[C@@H](C1)C[C@@H](C2)C3)c1ccc2c(ccn2Cc2ccc(C(=O)NO)c(Br)c2)c1`, the concentration for half-maximal inhibition (IC50) in assay [1] was 7320 nM; in [2], 8970 nM; in assay [3] it was more than 10000 nM; in [4], 2230 nM; in assay [5], 9310 nM.

As for `COc1cc(C(=O)NO)ccc1Cn1ccc2cc(C(=O)NCC34C[C@H]5C[C@@H](C3)C[C@@H](C4)C5)ccc21`, the IC50 in assay [1] was more than 10000 nM; in assay [2] it was more than 10000 nM; in assay [3], more than 10000 nM; in assay [6], 3040 nM; in [4], 1330 nM; in [7], 160 nM. The 50% inhibitory concentration (IC50) in assay [5] turned out to be 2840 nM; in [8], 640 nM; in assay [9], 1880 nM; in assay [10], 93 nM.

On to `COc1cc(CN(C)CCC23CC4CC(CC(C4)C2)C3)ccc1C(=O)NO`, for which the IC50 in [8] is more than 10000 nM; in assay [10], 4210 nM.

`CCCNNC(=O)c1ccc(Cn2ccc3cc(C(=O)NCC45C[C@H]6C[C@@H](C4)C[C@@H](C5)C6)ccc32)cc1`: in assay [10], the IC50 worked out at 2610 nM.

Consider `COc1cc(CN(C)CC23CC4CC(CC(C4)C2)C3)ccc1C(=O)NO`, for which the IC50 in assay [8] and in assay [10] was more than 10000 nM throughout.

As for `O=C(NCC12C[C@H]3C[C@@H](C1)C[C@@H](C2)C3)c1ccc2c(ccn2Cc2ccc(C(=O)NO)c(F)c2)c1`, the IC50 was found to be 600 nM in assay [2], 3400 nM in [3], 180 nM in [4] and 79 nM in assay [10].

With `COc1cc(C(=O)NCC23CC4CC(CC(C4)C2)C3)ccc1C(=O)NO`, the IC50 in [10] turned out to be 8890 nM.

Consider `CCOc1cc(Cn2ccc3cc(C(=O)NCC45C[C@H]6C[C@@H](C4)C[C@@H](C5)C6)ccc32)ccc1C(=O)NO`, for which the half-maximal inhibitory concentration (IC50) was more than 10000 nM in [1]; more than 10000 nM in assay [2]; more than 10000 nM in [3]; more than 10000 nM in assay [6]; 4030 nM in assay [11]; more than 10000 nM in [7]. Besides, the results for the IC50 in assay [5] and in [10] were more than 10000 nM and 250 nM, respectively.

Consider `O=C(NO)c1ccc(Cn2ccc3cc(C(=O)NCC45C[C@H]6C[C@@H](C4)C[C@@H](C5)C6)ccc32)cc1`, for which the 50% inhibitory concentration (IC50) in [1] is 880 nM; in [2] it was more than 10000 nM; in assay [3], 1900 nM; in [6], 1090 nM; in [4], 980 nM; in assay [7], 1950 nM. In addition, the half-inhibitory concentration (IC50) is 5250 nM in assay [5], more than 10000 nM in assay [9] and 480 nM in assay [10].

With `O=C(NCC12C[C@H]3C[C@@H](C1)C[C@@H](C2)C3)c1ccc2c(ccn2Cc2ccc(C(=O)NO)c(O)c2)c1`, the half-maximal inhibitory concentration (IC50) in assay [1] was more than 10000 nM; in assay [2], more than 10000 nM; in [3], more than 10000 nM; in assay [4], 8120 nM; in assay [9] it was 7250 nM.

As for `Cc1cc(Cn2ccc3cc(C(=O)NCC45C[C@H]6C[C@@H](C4)C[C@@H](C5)C6)ccc32)ccc1C(=O)NO`, the IC50 in assay [1] was more than 10000 nM; in assay [2], more than 10000 nM; in assay [3], more than 10000 nM; in assay [6] it was more than 10000 nM; in [4] it was more than 10000 nM; in assay [7], 2060 nM. Also, the IC50 in [10] was found to be 350 nM.

On to `O=C(NO)c1ccc(Cn2ccc3cc(C(=O)NCC45C[C@H]6C[C@@H](C4)C[C@@H](C5)C6)ccc32)c(F)c1`, for which the IC50 in assay [1] was found to be 190 nM; in assay [2], 230 nM; in assay [3] it was 1020 nM; in assay [6] it was 1120 nM; in assay [4], 690 nM; in assay [5], 2090 nM. Further, the IC50 was 8 nM in assay [8] and more than 10000 nM in [9].
